Source: patent US20100160391A1, “Substituted Aminopyridines as Fluorescent Reporters for Amide Hydrolases” (priority 2006, published 2010)
Marks after values point to notes of the source that are not given here.

Target: T1, microsomal fatty acid amide hydrolase (FAAH) (Homo sapiens, UniProt O00519)
T1 construct: made in house; host or cells: Trichoplusia ni High Five cells infected with recombinant baculovirus Ac-hFAAH; microsomal fraction
T1 sequence (O00519 1-579): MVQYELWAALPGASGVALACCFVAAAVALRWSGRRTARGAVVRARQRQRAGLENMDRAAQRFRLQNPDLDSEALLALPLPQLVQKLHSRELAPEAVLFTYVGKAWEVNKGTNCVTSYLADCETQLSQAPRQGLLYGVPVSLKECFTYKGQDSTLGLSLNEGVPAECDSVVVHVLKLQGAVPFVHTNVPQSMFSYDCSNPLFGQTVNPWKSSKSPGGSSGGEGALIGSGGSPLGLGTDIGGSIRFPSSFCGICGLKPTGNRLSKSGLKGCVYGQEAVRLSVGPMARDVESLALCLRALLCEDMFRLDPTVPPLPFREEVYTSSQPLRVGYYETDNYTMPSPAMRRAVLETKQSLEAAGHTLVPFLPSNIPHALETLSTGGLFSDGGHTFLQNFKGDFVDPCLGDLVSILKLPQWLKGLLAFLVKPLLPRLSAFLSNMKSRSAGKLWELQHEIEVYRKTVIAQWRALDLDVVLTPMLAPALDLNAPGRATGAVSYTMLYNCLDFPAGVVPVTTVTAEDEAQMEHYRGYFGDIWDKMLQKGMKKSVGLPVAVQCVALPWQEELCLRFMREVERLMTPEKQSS
Test: Lowest detection limits of microsomal FAAH toward colorimetric and fluorescent substrates
Type: biochemical
Description: Preparation of recombinant human FAAH. Transgenic expression of the human FAAH in a baculovirus system was performed by following the method described in Nishi et al., Arch. Biochem. Biophys., 445:115-123 (2006). The cDNA encoding human FAAH (GenBank Accession No. NM_001441) was amplified by PCR using a human liver cDNA library (Invitrogen; Carlsbad, Calif.) as a template. The primer pair was 5′-[…]-3′ and 5′-[…]-3′. BglII and EcoRI endonuclease sites (underlined) were incorporated just upstream of the start codon and downstream of the stop codon of the coding sequence of FAAH, respectively. The PCR products were cloned into a pCR2.1 vector (Invitrogen) and the nucleotide sequence was verified by DNA sequencing. The cDNA fragments were then excised and directionally ligated to the BglII and EcoRI sites of the baculovirus transfer vector pAcUW21 (Lopez-Ferber et al., Baculovirus transfer vectors, in “Baculovirus Expression Protocols,” Richardson (Ed.), pp 25-63, Humana Press, Totowa, N.J., 1995). Recombinant baculoviruses harboring the human FAAH gene, Ac-hFAAH, were generated by co-transfection of Spodoptera frugiperda-derived Sf21 cells with the recombinant transfer vector plasmid and Bsu36I-cleaved BacPAK6 viral DNA (Clontech Laboratories; Mountain View, Calif.) as described in O'Reilly et al., Baculovirus Expression Vectors: A Laboratory Manual, Oxford University Press, New York, 1992. Trichoplusia ni-derived High Five cells (1×10^6 cells/ml) were inoculated with a high titer of Ac-hFAAH. At 72 hours post-infection, the infected cells were harvested by centrifugation at 2,000×g for 20 min at 4° C. and suspended in 50 mM Tris-HCl (pH 8.0) containing 150 mM NaCl, 1 mM EDTA, 1 μM pepstatin, 100 μM leupeptin, and 0.1 mg/ml aprotinin. The cell suspension was then homogenized using a Polytron homogenizer and centrifuged at 10,000×g for 20 min at 4° C. The microsomal fraction was collected by ultracentrifugation of the supernatant at 100,000×g for 60 min at 4° C. The pellet was resuspended in 20 mM Tris-HCl (pH 8.0) containing 10% (w/v) glycerol and 1% (w/v) Triton-X 100 and stored at −80° C. until use.
Comparison of the lowest detection limits of protein concentration of FAAH toward colorimetric and fluorescent substrates. In general, all assays were performed in 96-well styrene flat-bottom microtiter plates with a Spectra Max M2 spectrophotometer at 37° C. for […]. The total volume of each well was 201 μl consisting of 0.1 M sodium phosphate buffer (pH 8.0) (190 μl) containing 1% glycerol and 0.1% Triton-X 100, stock or diluted protein solution (10 μl), and the substrate solution (1 μl) in ethanol (final concentration 200 μM for 10, 11, 13 or 14) or in DMSO (final concentration 25 μM for 12, 15, or 16; 50 μM for 17). The lowest detection limits of microsomal fatty acid amide hydrolase (FAAH) by substrates were determined by the fact that the signal at 10 min after kinetic measurements are equal to or over three times the noise or basal line at 0 min. Colorimetric substrate (16) assays were performed in clear 96-well microtititer plates using an absorbance wavelength at 382 nm. The fluorescent substrates containing 5-amino-2-methoxypyridine (e.g., 10, 13) were measured at an excitation wavelength (302 nm), emission wavelength (396 nm), and auto cutoff wavelength (325 nm). Similarly, the fluorescent substrates containing 5-amino-2-methoxy-6-methylpyridine (e.g., 11, 14, and 17) were measured at an excitation wavelength (304 nm), emission wavelength (392 nm), and an auto cutoff wavelength of 325 nm. In addition, an excitation wavelength (366 nm), emission wavelength (496 nm), and auto cutoff wavelength (495 nm) were used for the substrates (e.g., 12 and 15) containing 7-amino-4-trifluoromethyl coumarin.

Q: `CCCCCCCC(=O)Nc1ccc(OC)nc1` [Compound 13, N-(6-methoxypyridin-3-yl) octanamide] was tested. Which “base line, Average” value (0 min, protein 0.11 (13), 0.67 (14), 100 (15), 0.5 (17) μg/well, 200 μM (13),(14), 25 μM (15), 50 μM (17)) did it give?
A: The value was 302 RFU.

Q: And the “signal, Average” value (10 min, protein 0.11 (13), 0.67 (14), 100 (15), 0.5 (17) μg/well, 200 μM (13),(14), 25 μM (15), 50 μM (17))?
A: The value was 1091* RFU.

Q: And the “difference between (13) and (17) in limit of protein detection” value (Table 2)?
A: Its value is 5 times.

Q: What about the “Protein, lowest detection limit of microsomal FAAH (signal at 10 min ≥ three times base line)” value (pH 8.0, 37° C., 200 μM (13), (14), 50 μM (17)) of the same molecule?
A: Its value is 0.11 μg/200 μ′.

Q: What about the “lowest detection limit of protein” value (signal at 10 min equal to three times base line) of the same molecule?
A: Its value is 0.55 μg protein/ml.
